This is an account of results in patent US20110003000A1, “Transvaginal Delivery of Drugs” (FemmePharma Holding Company, Inc., priority 2009, published 2011).

Data set [1] has as its system urgency incontinence; urinary frequency, urgency and nocturia. The experiment in a line: Clinical case reports of transvaginal oxybutynin. The data set is classed as in vivo, human. The conditions noted are these: person. How it is done: A person developed urgency incontinence two years after their laparoscopically assisted transvaginal hysterectomy. […] Two weeks later, they started applying oxybutynin (5 mg) into the vagina at bed time, instead of Ditropan XL. […] The patient used transvaginal oxybutynin (5 mg) at bed time for 6 months.
A person with a history of chronic pelvic pain and multiple surgical procedures, including pain mapping under conscious sedation and repair of occult bilateral inguinal hernias, developed urinary frequency, urgency and nocturia. Their urine analysis and urine culture were negative for signs of urinary tract infection. Their treatment began with transvaginal oxybutynin (5 mg) once daily, at bed time, applied into the vagina.

Data set [2] relates to persistent urge incontinence. To be noted: intravesical administration; eleven patients; cited from earlier work.
Setting [3] is: 5 mg into the vagina at bed time.
Setting [4] is: 5 mg into the vagina twice daily.
Where [5] appears, read: transvaginal 5 mg at bed time for 6 months.

Counter-ions that a name gives are not always drawn.

For `Cc1ccc(O)c([C@H](CCN(C(C)C)C(C)C)c2ccccc2)c1` [DETROL, tolterodine tartrate], in data set [1] (2 mg orally twice a day), the “improvement of urgency incontinence” value is “slight improvement”.

Consider `CCN(CC)CC#CCOC(=O)C(O)(c1ccccc1)C1CCCCC1` (stereo not shown) [oxybutynin chloride], for which, in data set [2], the “patients reporting improvement and becoming totally continent” value is given as “Ten out of eleven”; the side effects entry is reported as “no side effects were observed”.

For the compound `CCN(CC)CC#CCOC(=O)C(O)(c1ccccc1)C1CCCCC1` (stereo not shown) [oxybutynin], in data set [1] (setting [3]), the side effects entry is given as “did not experience any noticeable side effects” and the urgency symptoms result is “improved remarkably”. Further, in data set [1] (setting [4]), the improvement of symptoms entry is recorded as “remarkable improvement” and the side effects entry was “no significant side effects”. In data set [1] (setting [5]), the “control of symptoms of urgency incontinence throughout the treatment period” value is given as “remained effective” and the “side effects throughout the treatment period” value is “did not suffer from any side effects”. In addition, the “improvement of urinary frequency, urgency and nocturia” value in data set [1] (transvaginal 5 mg once daily at bed time) is listed as “significant improvement”.
